This note sets out measurements from paper PMC12472947 (Pharmaceuticals, 2025).

“And” between values parts separate entries of the source, which are not always exact repeats. Identical values can stand only once. Like-named read-outs stand apart in the source and are kept apart here. Some results are limits rather than exact numbers.

For data set [1], the target named is T1, equine serum BChE [EqBChE] (Equus caballus, UniProt P81908).
T1 construct: equine serum BChE [EqBChE]; from tissue; host or cells: equine serum
Put plainly: biochemical. Conditions: Ellman method, read-out: IC50(nM) ± SD BChE (EqBChE). On the procedure:
(§1) The anticholinesterase activity was determined using Ellman’s method, adapted as follows. […] Subsequently, 60 μL of 5,5′-dithiobis(2-nitrobenzoic acid) (DTNB, 1.1 mM) and 30 μL of enzyme solution (electric eel AChE [EeAChE], human AChE [hAChE], or equine serum BChE [EqBChE], 0.20 U/mL) containing 1 mg/mL bovine serum albumin (BSA) were added. […] Enzyme activity was calculated as the percentage relative to untreated controls, subtracting the blank reference. IC50 values were derived via non-linear regression analysis of dose–response curves (Figure S4) using GraphPad Prism v7.0.

For data set [2], the target named is electric eel AChE [EeAChE] (Electrophorus electricus, UniProt O42275). Put plainly: biochemical. It counts as biochemical. The settings on record: for IC50: Electric eel AChE, Ellman method, read-out: IC50(nM) ± SD AChE (EeAChE); for SI: Selectivity Index = EqBChE IC50/EeAChE IC50. On the procedure:
as §1
In general terms: DTNB colorimetry detects thiols as they appear.

In data set [3] the test system is SH-SY5Y neuroblastoma cells. Put plainly: Cytotoxicity (neurotoxicity) MTT assay in SH-SY5Y. It counts as cell-based. Conditions: up to 50 µM. On the procedure: (§2) The immortalized human neuroblastoma cell line (SH-SY5Y–ATCC: CRL-2226; BCRJ:0223) was used to evaluate cytotoxicity. The cell line was cultured in Dulbecco’s Modified Eagle’s Medium and F12 in a 1:1 ratio (DMEM:F12; Sigma-Aldrich code 0697, Brazil) supplemented with 10% fetal bovine serum (FBS; Sigma-Aldrich code F2442, Brazil) and 1% streptomycin/penicillin (10,000 U/mL and 10,000 μg/mL, respectively; Nova Biotecnologia code BR30110-01, Cotia, SP, Brazil) and incubated at 37 °C with 5% CO2. The culture medium was replaced every 48 h, until the cells reached semi-confluence (≥70%). Cell passage was carried out with the aid of trypsin-EDTA/0.25% solution (Nova Biotecnologia, Brazil) and divided between 5 or 8 mL culture volumes depending on the respective bottles (25 or 75 cm^2) used.
(§3) The in vitro cytotoxicity assay evaluated cell viability using the [3-(4,5-dimethylthiazol-2yl)-2,5-diphenyl tetrazolium] bromide (MTT) reduction assay. Cells were seeded at an initial density of 5.0 × 10^4 cells/well in 96-well plates in a volume of 200 µL. […] In the next step, the culture medium was replaced by the sample solution previously described (Section 3.4.2). After 24 h exposure, the medium was replaced with 100 μL of MTT in phosphate-buffer saline (PBS), pH 7.4, at a concentration of 0.5 mg.mL^−1/well and the plates were incubated for an additional 3 h. Then, the MTT solution was removed, and 100 μL of DMSO was added to solubilize the formazan crystals. The cell viability was measured by absorbance at 562 nm using a Microplate Absorbance Reader (Kasuaki, Brazil). All concentrations tested were evaluated in nine replicates (n = 9). The variation in results was observed using ANOVA followed by Tukey’s test for multiple comparisons through GraphPad Prism v5^TM with a significance level of p < 0.05.
(In general: Formazan colour is commonly taken as a measure of viable cells.)

Data set [4] can be described thus: Cytotoxicity (neurotoxicity) MTT assay in SH-SY5Y. It counts as cell-based. Conditions: human, SH-SY5Y neuroblastoma cells. On the procedure: as §2, §3
The test system of data set [5] is H2O2-damaged SH-SY5Y cells. Put plainly: In vitro neuroprotection against H2O2 in SH-SY5Y (MTT). On the procedure:
For the neuroprotection assay, the cells previously cultured (Section 3.4.1) were seeded in 96-well plates at a density of 5 × 10^4 cells/well in a volume of 200 µL. The plates were incubated at 37 °C containing 5% CO2 for 24 h. After 24 h, the medium was replaced with the test solutions. […] Finally, the test solutions were removed, the cells were washed with PBS pH 7.4, and the H2O2 solution was added and maintained in contact with the cells for 24 h. After 24 h exposure, the neuroprotective capacity was assessed through cell viability using the MTT assay protocol previously described in Section 3.4.3 [52, 53].

In data set [6] the target is T2, equine serum butyrylcholinesterase (EqBuChE) (Equus caballus, UniProt P81908).
T2 construct: equine serum BChE [EqBChE]; from tissue; host or cells: equine serum
Description: Enzymatic kinetic study, EqBChE. It counts as biochemical. The settings on record: BChE. On the procedure:
(§4) The enzymatic kinetics of cholinesterase inhibition were determined according to an adapted Ellman’s method. All of the solutions were prepared at 20 °C in 0.02 M Tris-HCl buffer (pH 7.5; ionic strength ~0.02 M), stock solutions of test compounds were prepared in DMSO:EtOH (7:3) mixture (20 mM), and the experiment was conducted in triplicate. To a flat-bottom 96-well transparent plate (path length of 0.6 cm) were added 150 μL of treatment solutions with inhibitors 1a, 1h, and 1j at two different concentrations (Table S1) distributed in eight sets of triplicate each. Eight sets of untreated triplicates were used as a negative control. Following, there were added 60 μL of 5,5′-Dithiobis(2-nitrobenzoic acid) (DTNB, Ellman’s reagent) at 1.1 mM and 30 μL of electric eel acetylcholinesterase (EeAChE) or equine serum butyrylcholinesterase (EqBuChE) at 0.20 U/mL in the presence of 1 mg/mL bovine serum albumin (BSA). […] Ki, Ki’ (competitive and noncompetitive inhibition constants, respectively), Km (Michaelis-Menten constant), and Vmax values were calculated with Graphpad Prism v7.0 using the non-linear regression models for enzyme kinetics inhibition and enzyme kinetics–substrate vs. velocity.

Data set [7] addresses electric eel acetylcholinesterase (EeAChE) (Electrophorus electricus, UniProt O42275). Description: Enzymatic kinetic study, EeAChE. The format is biochemical. Conditions: AChE. On the procedure:
as §4

Setting [8] is: enzyme-substrate complex, global non-linear regression (Table 2).
[9] abbreviates: global non-linear regression, mixed inhibition (Table S3).

T2 sequence (P81908 whole entry): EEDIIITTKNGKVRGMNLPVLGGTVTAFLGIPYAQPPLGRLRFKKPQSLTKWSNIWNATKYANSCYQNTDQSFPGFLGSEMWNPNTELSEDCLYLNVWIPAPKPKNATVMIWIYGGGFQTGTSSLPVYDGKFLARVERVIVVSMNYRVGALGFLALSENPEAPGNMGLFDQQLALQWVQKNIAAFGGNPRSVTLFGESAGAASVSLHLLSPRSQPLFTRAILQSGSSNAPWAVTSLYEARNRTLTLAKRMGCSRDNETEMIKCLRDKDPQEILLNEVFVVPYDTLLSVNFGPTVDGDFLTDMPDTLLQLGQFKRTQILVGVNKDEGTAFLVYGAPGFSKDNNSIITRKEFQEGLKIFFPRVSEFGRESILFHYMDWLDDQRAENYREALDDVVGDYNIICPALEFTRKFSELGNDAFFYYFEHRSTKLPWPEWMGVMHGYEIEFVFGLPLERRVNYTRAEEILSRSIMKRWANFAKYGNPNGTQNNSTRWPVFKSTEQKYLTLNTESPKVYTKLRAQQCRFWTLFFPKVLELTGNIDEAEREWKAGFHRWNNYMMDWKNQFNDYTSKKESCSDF
T1 sequence (P81908 whole entry): as above
Sequence of electric eel acetylcholinesterase (EeAChE) (O42275 24-633): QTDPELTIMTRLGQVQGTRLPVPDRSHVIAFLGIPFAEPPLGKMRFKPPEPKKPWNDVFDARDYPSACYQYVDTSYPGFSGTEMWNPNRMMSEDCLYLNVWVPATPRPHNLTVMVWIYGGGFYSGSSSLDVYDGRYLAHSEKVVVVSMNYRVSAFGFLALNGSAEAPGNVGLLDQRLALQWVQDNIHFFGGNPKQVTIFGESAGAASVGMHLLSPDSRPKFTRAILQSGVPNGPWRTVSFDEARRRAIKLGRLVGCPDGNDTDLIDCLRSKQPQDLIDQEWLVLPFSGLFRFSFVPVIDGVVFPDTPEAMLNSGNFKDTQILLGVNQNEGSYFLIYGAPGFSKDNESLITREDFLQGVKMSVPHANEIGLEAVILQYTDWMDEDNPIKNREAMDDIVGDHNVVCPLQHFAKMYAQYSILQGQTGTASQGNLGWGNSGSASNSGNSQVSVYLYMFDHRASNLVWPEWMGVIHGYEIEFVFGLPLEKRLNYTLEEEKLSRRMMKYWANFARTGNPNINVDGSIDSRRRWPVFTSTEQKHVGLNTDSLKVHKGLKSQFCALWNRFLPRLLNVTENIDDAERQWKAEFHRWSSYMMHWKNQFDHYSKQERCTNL
Sequence of electric eel AChE [EeAChE] (O42275 24-633): as above

For orientation: IC50 means the point on the concentration scale where inhibition reaches its midpoint. With `O=c1oc2cc(OCCN3CCCCC3)ccc2cc1-c1cn(Cc2ccc(Cl)cc2)nn1` [Compound 1n, 3-(1-(4-Chlorobenzyl)-1H-1,2,3-triazol-4-yl)-7-(2-(piperidin-1-yl)ethoxy)-2H-chromen-2-one], the IC50 in data set [1] was determined as 2240 ± 60 nM; in data set [2], 104 ± 5.4 nM.

For the compound `O=c1oc2cc(OCCCCCN3CCCCC3)ccc2cc1-c1cn(-c2ccccc2)nn1` [Compound 1d, 3-(1-Phenyl-1H-1,2,3-triazol-4-yl)-7-((5-(piperidin-1-yl)pentyl)oxy)-2H-chromen-2-one], the figures for the IC50 in data set [1] and in data set [2] were 3540 ± 81 nM and 4790 ± 290 nM, respectively. Also, the SI in data set [2] is around 1.

On to `COc1ccccc1Cn1cc(-c2cc3ccc(OCCN4CCCCC4)cc3oc2=O)nn1` [Compound 1i, 3-(1-(2-Methoxybenzyl)-1H-1,2,3-triazol-4-yl)-7-(2-(piperidin-1-yl)ethoxy)-2H-chromen-2-one], for which, in data set [1], the IC50 is 2810 ± 230 nM. In addition, in data set [2], the IC50 came to 15.3 ± 0.25 nM and the SI turned out to be 184.

On to `O=c1oc2cc(OCCN3CCNCC3)ccc2cc1-c1cn(-c2ccccc2)nn1` [Compound 1g, 3-(1-Phenyl-1H-1,2,3-triazol-4-yl)-7-(2-(piperazin-1-yl)ethoxy)-2H-chromen-2-one], for which, in data set [1], the IC50 stood at 9840 ± 130 nM. In data set [2], the IC50 was 1060 ± 74 nM and the SI is recorded as around 8.

In the case of `CC1CCN(CCOc2ccc3cc(-c4cn(-c5ccccc5)nn4)c(=O)oc3c2)CC1` [Compound 1e, 7-(2-(4-Methylpiperidin-1-yl)ethoxy)-3-(1-phenyl-1H-1,2,3-triazol-4-yl)-2H-chromen-2-one], the IC50 in data set [1] was 11100 nM. Also, in data set [2], the IC50 turned out to be 1690 ± 75 nM and the SI is listed as around 7.

As for `O=c1oc2cc(OCCN3CCCCC3)ccc2cc1-c1cn(Cc2ccc(Br)cc2)nn1` [Compound 1p, 3-(1-(4-Bromobenzyl)-1H-1,2,3-triazol-4-yl)-7-(2-(piperidin-1-yl)ethoxy)-2H-chromen-2-one], the 50% inhibitory concentration (IC50) came out at 1140 ± 70 nM in data set [1] and 12.9 ± 0.96 nM in data set [2]. This compound also yielded an SI in data set [2] of 88.

For `CN1CCN(CCOc2ccc3cc(-c4cn(-c5ccccc5)nn4)c(=O)oc3c2)CC1` [Compound 1f, 7-(2-(4-Methylpiperazin-1-yl)ethoxy)-3-(1-phenyl-1H-1,2,3-triazol-4-yl)-2H-chromen-2-one], in data set [1], the half-maximal inhibitory concentration (IC50) is 8140 ± 890 nM. Besides, in data set [2], the IC50 amounted to 3160 ± 76 nM and the SI was found to be 3.

With `O=c1oc2cc(OCCN3CCCCC3)ccc2cc1-c1cn(Cc2cccc(Br)c2)nn1` [Compound 1o, 3-(1-(3-Bromobenzyl)-1H-1,2,3-triazol-4-yl)-7-(2-(piperidin-1-yl)ethoxy)-2H-chromen-2-one], in data set [1], the IC50 was 2090 ± 54 nM. Moreover, in data set [2], the IC50 was determined as 7.92 ± 0.48 nM and the SI is reported as 265.

As for `O=c1oc2cc(OCCCCN3CCCCC3)ccc2cc1-c1cn(-c2ccccc2)nn1` [Compound 1c, 3-(1-Phenyl-1H-1,2,3-triazol-4-yl)-7-(4-(piperidin-1-yl)butoxy)-2H-chromen-2-one], the IC50 in data set [1] was found to be 2410 ± 29 nM. In data set [2], the half-maximal inhibitory concentration (IC50) amounted to 1110 ± 10 nM and the SI is around 2.

For orientation: viability means a read-out of living cells in per cent, often relative to untreated cells. On to `COc1ccc(Cn2cc(-c3cc4ccc(OCCN5CCCCC5)cc4oc3=O)nn2)cc1` [Compound 1k, 3-(1-(4-Methoxybenzyl)-1H-1,2,3-triazol-4-yl)-7-(2-(piperidin-1-yl)ethoxy)-2H-chromen-2-one], for which the IC50 in data set [1] turned out to be 2080 ± 99 nM. In addition, in data set [2], the IC50 was 4.58 ± 0.62 nM and the SI is 443. For the same compound, the neurotoxicity result in data set [3] was “non-neurotoxic”. The viability at 24 h, 12.5 µM in data set [4] (12.5 μM, 24 h, MTT, read-out: Cell viability (% of control)) came to 99%. In addition, the viability at 24 h, 25 µM in data set [4] (25.0 μM, 24 h, MTT, read-out: Cell viability (% of control)) came to 106%. In addition, the viability at 24 h, 50 µM in data set [4] (50.0 μM, 24 h, MTT, read-out: Cell viability (% of control)) was found to be 84%. Besides, the viability at 24 h in data set [4] (up to 25 μM, read-out: cell viability) is at least 70%. Besides, in data set [5] (12.5 µM), the “neuroprotection against H2O2-induced oxidative stress” value is “neuroprotective effects”. The viability at 12.5 µM in data set [5] (Homo sapiens, SH-SY5Y, read-out: Cell viability (% of control)) is 92%.

For `O=c1oc2cc(OCCN3CCCCC3)ccc2cc1-c1cn(Cc2cccc(Cl)c2)nn1` [Compound 1m], the values for the IC50 in data set [1] and in data set [2] were 1950 ± 120 nM and 13.1 ± 0.83 nM, respectively. This compound also yielded an SI in data set [2] of 149.

Regarding `O=c1oc2cc(OCCN3CCCCC3)ccc2cc1-c1cn(Cc2ccc(F)cc2)nn1` [Compound 1l, 3-(1-(4-Fluorbenzyl)-1H-1,2,3-triazol-4-yl)-7-(2-(piperidin-1-yl)ethoxy)-2H-chromen-2-one], the IC50 in data set [1] amounted to 4120 ± 110 nM. Besides, in data set [2], the IC50 was determined as 23.4 ± 1.77 nM and the SI is reported as 176.

As usually defined, the Ki is a dissociation constant, usually derived from enzyme kinetics or from competition with a known ligand. As for `O=c1oc2cc(OCCN3CCCCC3)ccc2cc1-c1cn(-c2ccccc2)nn1` [Compound 1a, 3-(1-Phenyl-1H-1,2,3-triazol-4-yl)-7-(2-(piperidin-1-yl)ethoxy)-2H-chromen-2-one], the values for the IC50 in data set [1] and in data set [2] were 8660 ± 150 nM and 50 ± 2.04 nM, respectively. Also, the inhibition mechanism result in data set [6] (Lineweaver-Burk plots) and in data set [7] (Lineweaver-Burk plots) was “mixed-type inhibition” throughout. The Ki in data set [6] (competitive inhibition constant (Table S2), read-out: Ki (nM) ± SD) amounted to 3500 ± 64.9 nM; in data set [6] (free enzyme (Table S3), read-out: Ki ± SE (95% CI)), 3940 ± 227 nM; in data set [6] (free enzyme, global non-linear regression (Table 2), read-out: Ki (nM) ± SE), 3940 ± 230 nM; in data set [7] (free enzyme, global non-linear regression to mixed-inhibition equation (Table 2), read-out: Ki (nM) ± SE) it was 30.8 ± 5.38 nM. The entries for the “Ki’ (nM) ± SE” value in data set [6] (setting [8]) and in data set [7] (setting [8]) were 11,400 ± 1100 nM and 61.59 ± 20.04 nM, respectively. Moreover, the figures for the “α ± SE (95% CI)” value in data set [6] (setting [9]) and in data set [7] (setting [9]) were 2.883 ± 0.3970 and 2.001 ± 0.6489, respectively. Moreover, the “Vmax ± SD” value in data set [6] (inhibitor 4 μM) was 11.69 ± 0.201 1 × 10^3 nM/min and 11.69 ± 0.20 1 × 10^3 nM/min; in data set [6] (inhibitor 8 μM), 8.24 ± 0.212 1 × 10^3 nM/min and 8.24 ± 0.21 1 × 10^3 nM/min; in data set [7] (inhibitor 0.02 μM), 2.78 ± 0.044 1 × 10^3 nM/min and 2.78 ± 0.04 1 × 10^3 nM/min; in data set [7] (inhibitor 0.06 μM) it was 2.06 ± 0.031 1 × 10^3 nM/min and 2.06 ± 0.03 1 × 10^3 nM/min. In data set [2], this compound had an SI of 173. The “Ki′ ± SE (95% CI)” value in data set [7] (enzyme-substrate complex (Table S3)) was found to be 61.59 ± 20.04 nM.
